The results in this text go back to patent publication US11708344B2, “Flavone derivatives for the treatment and prophylaxis of hepatitis B virus disease” (Hoffmann-La Roche Inc., priority 2018, dated 2023).

Read-outs that look alike come from different tables or passages of the source.

Data set [1] has as its system HBeAg (surrogate marker for cccDNA) in HepDES19 cells. Kind of data set: Engineered HepDES19 primary screen assay (HBeAg ELISA). Format: cell-based, HBV. As to conditions: Hepatitis B virus, HepDES19, 120 h, read-out: IC50 (HBeAg level, HepDES19 primary screen assay), HepDES19 cells, 5 days compound incubation, HBeAg ELISA. In a few lines:
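HepDES19 cells were induced by Tet withdrawal for 8 days, then treated with half-log compound dilutions (1% DMSO final) for 5 days at 37 °C. HBeAg was measured by ELISA as the cccDNA surrogate, viability by CCK-8, and IC50 from a 4-parameter logistic fit.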
(In an ELISA, binding on a coated surface is turned into a signal by an enzyme label.)

The subject of data set [2] is HBsAg in HBV-infected PHH. Kind of data set: Cryopreserved primary human hepatocytes (PHH) HBV infection assay, extracellular HBsAg (CLIA). Format: cell-based. The method, boiled down:
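Cryopreserved PHH were infected with 5.8×10^6 HBV genome equivalents in medium with 4% PEG8000 and 1% DMSO. After 9 days of treatment, extracellular HBsAg was measured by CLIA, and IC50 was derived from a 4-parameter logistic fit.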

The nature of data set [3]: Human microsome stability assay. Format: in vitro ADME. Conditions: human liver microsomes, 1 μM test compound, 0.5 mg/mL microsomal protein, 37° C., pH 7.4, 0-30 minutes. The method, boiled down:
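Compound (1 μM) incubated at 37 °C with human liver microsomes (0.5 mg/mL protein) in 100 mM potassium phosphate, pH 7.4, after 10 min preincubation; started with NADPH regenerating system. Sampled at 0–30 min, quenched with cold ACN; remaining parent quantified by LC-MS/MS, with no-NADPH controls.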
For orientation: Liver microsomes are vesicles of endoplasmic reticulum, rich in cytochrome P450 enzymes.

The mark [4] stands for this setting: Hepatitis B virus, Hepatocyte, 216 h, read-out: HBsAg IC50, Cryopreserved PHH infected with HBV, 9 days post-compound treatment, extracellular HBsAg.

For orientation: IC50 means the concentration needed to halve the response being measured. As to `CCNS(=O)(=O)N[C@@H](COc1cc(C(F)(F)F)ccc1-c1cc(=O)c2cccc(Cl)c2o1)C(=O)O` [Example A099, (2S)-3-[2-(8-chloro-4-oxo-chromen-2-yl)-5-(trifluoromethyl)phenoxy]-2-(ethylsulfamoylamino)propanoic acid], the IC50 in data set [1] came to 0.0663 µM; in data set [2] (setting [4]) it was 0.14 µM. Also, the “Clearance of Human microsome” value in data set [3] was found to be 9.53 mL/min/kg.
On the same counts, the results for `O=c1cc(-c2ccccc2O[C@H]2C[C@@H](C(=O)O)C2)oc2c(Cl)cccc12` [Example B002-A, cis-3-[2-(8-chloro-4-oxo-chromen-2-yl)phenoxy]cyclobutanecarboxylic acid] are 0.162 µM, 2.02 µM and 6.15 mL/min/kg.
As for `O=c1cc(-c2ccccc2O[C@H]2C[C@H](C(=O)O)C2)oc2c(Cl)cccc12` [Example B002-B, trans-3-[2-(8-chloro-4-oxo-chromen-2-yl)phenoxy]cyclobutanecarboxylic acid], the results for the IC50 in data set [1] and in data set [2] (setting [4]) were 0.112 µM and 3.35 µM, respectively. Further, in data set [3], the “Clearance of Human microsome” value was determined as 6.15 mL/min/kg.
On the same counts, the results for `O=C(O)C1CC(Oc2cc(C(F)(F)F)ccc2-c2cc(=O)c3cccc(Cl)c3o2)C1` (stereo not drawn) [Example B003, 3-[2-(8-chloro-4-oxo-chromen-2-yl)-5-(trifluoromethyl)phenoxy]cyclobutanecarboxylic acid] are 0.468 µM, 4.37 µM and 6.15 mL/min/kg.
For `COc1cc(-c2cc(=O)c3cccc(Cl)c3o2)c(OC2CC(C(=O)O)C2)cc1Br` (stereo not drawn) [Example B004, 3-[5-bromo-2-(8-chloro-4-oxo-chromen-2-yl)-4-methoxy-phenoxy]cyclobutanecarboxylic acid] the same measures were 0.556 µM, 5.52 µM and 6.15 mL/min/kg.
For `O=C(O)C1CC(Oc2cc(OC(F)(F)F)ccc2-c2cc(=O)c3cccc(Cl)c3o2)C1` (stereo not drawn) [Example B005, 3-[2-(8-chloro-4-oxo-chromen-2-yl)-5-(trifluoromethoxy)phenoxy]cyclobutanecarboxylic acid] the same measures were 0.219 µM, 6.97 µM and 6.15 mL/min/kg.
Turning to `O=C(O)C1CC(Oc2cc(OC(F)(F)F)c(Br)cc2-c2cc(=O)c3cccc(Cl)c3o2)C1` (stereo not drawn) [Example B007, 3-[4-bromo-2-(8-chloro-4-oxo-chromen-2-yl)-5-(trifluoromethoxy)phenoxy]cyclobutanecarboxylic acid], the IC50 in data set [1] worked out at 2.31 µM; in data set [2] (setting [4]) it was 2.24 µM. Further, the “Clearance of Human microsome” value in data set [3] is 6.15 mL/min/kg.
For `O=C(O)C1CCC(Oc2cc(Br)ccc2-c2cc(=O)c3cccc(Cl)c3o2)CC1` (stereo not drawn) [Example B010, 4-[5-bromo-2-(8-chloro-4-oxo-chromen-2-yl)phenoxy]cyclohexanecarboxylic acid] the same measures were 2.76 µM, 7.08 µM and 6.15 mL/min/kg.
For `COc1ccc(-c2cc(=O)c3cccc(Cl)c3o2)c(O[C@H]2C[C@@H](C(=O)O)C2)c1` [Example B011-A, Cis-3-[2-(8-chloro-4-oxo-chromen-2-yl)-5-methoxy-phenoxy]cyclobutanecarboxylic acid] the same measures were 0.851 µM, 2.32 µM and 8.35 mL/min/kg.
Take `Cc1cc(-c2cc(=O)c3cccc(Cl)c3o2)c(O[C@H]2C[C@@H](C(=O)O)C2)cc1Cl` [Example B012-A, Cis-3-[5-chloro-2-(8-chloro-4-oxo-chromen-2-yl)-4-methyl-phenoxy]cyclobutanecarboxylic acid]: the concentration for half-maximal inhibition (IC50) in data set [1] came out at 3.27 µM; in data set [2] (read-out: HBsAg IC50, Cryopreserved PHH infected with HBV, 9 days post-compound treatment, extracellular HBsAg), 6.01 µM. Besides, the “Clearance of Human microsome” value in data set [3] was 6.15 mL/min/kg.
Consider `O=c1cc(-c2ccc(OC(F)(F)F)cc2O[C@H]2C[C@@H](C(=O)O)C2)oc2c(Cl)cccc12` [Example B015-A, Cis-3-[2-(8-chloro-4-oxo-chromen-2-yl)-5-(trifluoromethoxy)phenoxy]cyclobutanecarboxylic acid], for which the IC50 in data set [1] is 3.79 µM; in data set [2] (setting [4]), 2.57 µM. For the same molecule, the “Clearance of Human microsome” value in data set [3] was determined as 6.15 mL/min/kg.
On the same counts, the results for `Cc1ccc(-c2cc(=O)c3cccc(Cl)c3o2)c(O[C@H]2C[C@@H](C(=O)O)C2)c1` [Example B018-A, Cis-3-[2-(8-chloro-4-oxo-chromen-2-yl)-5-methyl-phenoxy]cyclobutanecarboxylic acid] are 0.146 µM, 0.887 µM and 6.15 mL/min/kg.
In the case of `O=c1cc(-c2ccccc2O[C@H]2C[C@@H](C(=O)O)C2)oc2c(Br)cccc12` [Example B022-A, Cis-3-[2-(8-bromo-4-oxo-chromen-2-yl)phenoxy]cyclobutanecarboxylic acid], the IC50 in data set [1] was 0.112 µM; in data set [2] (setting [4]), 3.83 µM. For the same molecule, in data set [3], the “Clearance of Human microsome” value came out at 6.15 mL/min/kg.
On the same counts, the results for `O=c1cc(-c2cc(C(F)(F)F)c(Br)cc2O[C@H]2C[C@H](C(=O)O)C2)oc2c(Cl)cccc12` [Example B024, Trans-3-[5-bromo-2-(8-chloro-4-oxo-chromen-2-yl)-4-(trifluoromethyl)phenoxy]cyclobutanecarboxylic acid] are 1.64 µM, 6.84 µM and 7.41 mL/min/kg.
For `O=c1cc(-c2ccccc2OC[C@H]2C[C@@H](C(=O)O)C2)oc2c(Cl)cccc12` [Example B026-A, Cis-3-[[2-(8-chloro-4-oxo-chromen-2-yl)phenoxy]methyl]cyclobutanecarboxylic acid] the same measures were 0.0394 µM, 4.97 µM and 6.15 mL/min/kg.
On the same counts, the results for `O=c1cc(-c2ccccc2OC[C@H]2C[C@H](C(=O)O)C2)oc2c(Cl)cccc12` [Example B026-B, Trans-3-[[2-(8-chloro-4-oxo-chromen-2-yl)phenoxy]methyl]cyclobutanecarboxylic acid] are 0.138 µM, 3.19 µM and 6.15 mL/min/kg.
With `O=c1cc(-c2ccc(C3CC3)cc2O[C@H]2C[C@@H](C(=O)O)C2)oc2c(Cl)cccc12` [Example B035-A, cis-3-[2-(8-chloro-4-oxo-chromen-2-yl)-5-cyclopropyl-phenoxy]cyclobutanecarboxylic acid], the IC50 stood at 0.16 µM in data set [1] and 1.46 µM in data set [2] (setting [4]). For the same molecule, in data set [3], the “Clearance of Human microsome” value came to 8.46 mL/min/kg.
For `O=c1cc(-c2ccc(Br)cc2O[C@H]2C[C@@H](C(=O)O)C2)oc2c(Cl)ccc(O)c12` [Example B036-A, Cis-3-[5-bromo-2-(8-chloro-5-hydroxy-4-oxo-chromen-2-yl)phenoxy]cyclobutanecarboxylic acid] the same measures were 0.926 µM, 9.5 µM and 6.15 mL/min/kg.
For `Cc1ccc(-c2cc(=O)c3c(O)ccc(Cl)c3o2)c(O[C@H]2C[C@@H](C(=O)O)C2)c1` [Example B037-A, Cis-3-[2-(8-chloro-5-hydroxy-4-oxo-chromen-2-yl)-5-methyl-phenoxy]cyclobutanecarboxylic acid] the same measures were 4.43 µM, 2.04 µM and 9.86 mL/min/kg.
For the molecule `O=c1cc(-c2ccc(C(F)(F)F)cc2O[C@H]2C[C@H](C(=O)NS(=O)(=O)C3CC3)C2)oc2c(Cl)cccc12` [Example B043-B, trans-3-[2-(8-chloro-4-oxo-chromen-2-yl)-5-(trifluoromethyl)phenoxy]-N-cyclopropylsulfonyl-cyclobutanecarboxamide], the IC50 in data set [1] is 1.14 µM; in data set [2] (setting [4]), 3.7 µM. Further, in data set [3], the “Clearance of Human microsome” value is on record as 6.15 mL/min/kg.
On the same counts, the results for `CS(=O)(=O)NC(=O)[C@H]1C[C@@H](Oc2cc(OC(F)(F)F)ccc2-c2cc(=O)c3cccc(Cl)c3o2)C1` [Example B047-A, Cis-3-[2-(8-chloro-4-oxo-chromen-2-yl)-5-(trifluoromethoxy)phenoxy]-N-methylsulfonyl-cyclobutanecarboxamide] are 1.96 µM, 5.54 µM and 6.15 mL/min/kg.
Take `COc1cc(O[C@H]2C[C@H](C(=O)NS(C)(=O)=O)C2)c(-c2cc(=O)c3cccc(Cl)c3o2)cc1C` [Example B050-B, Trans-3-[2-(8-chloro-4-oxo-chromen-2-yl)-5-methoxy-4-methyl-phenoxy]-N-methylsulfonyl-cyclobutanecarboxamide]: the IC50 was found to be 6.08 µM in data set [1] and 9.46 µM in data set [2] (setting [4]). Moreover, in data set [3], the “Clearance of Human microsome” value is recorded as 7.69 mL/min/kg.
On the same counts, the results for `Cc1ccc(-c2cc(=O)c3cccc(Cl)c3o2)c(O[C@H]2C[C@@H](C(=O)NS(C)(=O)=O)C2)c1` [Example B051-A, Cis-3-[2-(8-chloro-4-oxo-chromen-2-yl)-5-methyl-phenoxy]-N-methylsulfonyl-cyclobutanecarboxamide] are 6.18 µM, 3.21 µM and 6.15 mL/min/kg.
